From patent US7232837B2, “Stereoisomers with high affinity for adrenergic receptors” (McNeil-PPC, Inc., priority 1999, dated 2007)

What was measured:
Swiss-Webster mice [1] = assay: Locomotor stimulant and depressant effects in mice; conditions: i.p.
Swiss-Webster mice [2] = assay: H1 receptor antagonist (triprolidine) interaction study, locomotor activity in mice; conditions: mice pretreated with triprolidine 20 min before the test compound
Experimental: H1 receptor antagonist interaction studies. […] The mice were immediately placed in the activity testing chamber for a 2-h session. Doses of the test compound were selected from the ascending or descending time of the dose-effect curve determined from the compound-alone studies. Eight mice were tested for each triprolidine/test compound combination.
Statistical analysis. Time course data for each compound were considered in 2-way analyses of variance with dose as a between-group and time as a within-group factor. The dose-effect data were considered in 1-way analyses of variance, and planned individual comparisons were conduced between each dose and the saline control group. Interaction studies were considered in 2-way analyses of variance, with Pretreatment and Test dose as the factors.

[3] = system: New Zealand white rabbits; assay: Intraocular pressure (IOP) after topical application to the rabbit eye; assay type: in vivo; conditions: for IOP: mean ± S.E.
Experimental: (§1) These diastereomers were administered topically as either 1% or 2% solutions in buffered saline. Pupillary diameter and IOP were measured in all animals over a six hour time period during the day to minimize diurnal variations in IOP and pupil diameter.
(§2) The experiments were performed on adult male New Zealand white rabbits weighing 3.0–6.0 kg. All rabbits were caged individually and maintained on a 12 hr/12 hr light/dark schedule with free access to food and water. All animal procedures were in conformity with the ARVO Resolution on the Use and Care of Animals in Research. All treated rabbits had served as controls by having received a saline treatment on a different day.
(§3) Only one eye received drug treatment. The contralateral eye served as a control. Saline (or PBS) and drug treated rabbits were treated and observed simultaneously. A single dose was given at time zero and IOP and pupil diameter measured at −1.0, −0.5, 0.5, 1, 3 and 5 hrs post-treatment.
IOP measurements were recorded with an Alcon Applanation Pneumotonograph (Surgical Products Division, Alcon Laboratories, Inc., Ft. Worth, Tex.) in rabbits placed in Lucite restraining cages. Initial topical application of a two drop 0.5% proparacaine HCl (Ophthetic®, Allergan Pharmaceuticals, Inc.) was performed on each rabbit.
(§4) Mean and Standard Error values were used to construct time-response and dose-response curves for the treated and contralateral eye of research rabbits. The data were analyzed statistically by an analysis of variance and a Bonferoni's test for significance. P<0.05 was the accepted level of significance.

[4] = system: New Zealand white rabbits; assay: Pupil diameter / mydriasis after topical application to the rabbit eye; assay type: in vivo; conditions: for Pupil Diameter: mean ± S.E.
Experimental: as §1, §2, §3
Pupil diameter was measured visually at the point of the greatest horizontal diameter with a transparent millimeter ruler. All measurements were made under the identical ambient lighting conditions.
as §4

[5] = — denotes absence of significant effect
[6] = 1% topical, drug treated eye (T), 0.5 hr
[7] = 1% topical, drug treated eye (T), 1 hr
[8] = 1% topical, drug treated eye (T), 3 hr
[9] = 1% topical, drug treated eye (T), 5 hr
[10] = 1% topical, drug treated eye (T), −0.5 hr (pre-treatment)
[11] = 1% topical, drug treated eye (T), −1 hr (pre-treatment)
[12] = 1% topical, untreated contralateral eye (U), 0.5 hr
[13] = 1% topical, untreated contralateral eye (U), 1 hr
[14] = 1% topical, untreated contralateral eye (U), 3 hr
[15] = 1% topical, untreated contralateral eye (U), 5 hr
[16] = 1% topical, untreated contralateral eye (U), −0.5 hr (pre-treatment)
[17] = 1% topical, untreated contralateral eye (U), −1 hr (pre-treatment)
[18] = 2% topical, drug treated eye (T), 0.5 hr
[19] = 2% topical, drug treated eye (T), 1 hr
[20] = 2% topical, drug treated eye (T), 3 hr
[21] = 2% topical, drug treated eye (T), 5 hr
[22] = 2% topical, drug treated eye (T), −0.5 hr (pre-treatment)
[23] = 2% topical, drug treated eye (T), −1 hr (pre-treatment)
[24] = 2% topical, untreated contralateral eye (U), 0.5 hr
[25] = 2% topical, untreated contralateral eye (U), 1 hr
[26] = 2% topical, untreated contralateral eye (U), 3 hr
[27] = 2% topical, untreated contralateral eye (U), 5 hr
[28] = 2% topical, untreated contralateral eye (U), −0.5 hr (pre-treatment)
[29] = 2% topical, untreated contralateral eye (U), −1 hr (pre-treatment)

## (−)-norpseudoephedrine
Swiss-Webster mice [1]
  Depression Time: 30-min period following injection in which the maximal depression occurred: 10 to 40 min
  Stimulation Time: 30-min period following injection in which the maximal stimulant effect occurred: 40 to 70 min
  locomotor depressant effects, time course (result in words): locomotor depression at an earlier time (10–40 minutes following injection) and with a lower dose range
  locomotor stimulant effects, time course (result in words): Dose-dependent increases in locomotor activity of slower onset and longer duration
Swiss-Webster mice [1]; [5]
  Depression Potency: dose resulting in ½ the maximal depressant effect (ID50): 3.9 mg/kg
  Stimulation Potency: dose resulting in ½ the maximal stimulant effect (ID50): 51.1 mg/kg
Swiss-Webster mice [2]
  effect of triprolidine pretreatment on stimulant or depressant effects: Significant effects for pretreatment with triprolidine
[3]; 1% or 2% topical, rabbit
  effect on IOP (result in words): accompanying increase in IOP
[3]; [6]
  IOP: 17 ± 1.0 mmHg
[3]; [7]
  IOP: 17 ± 1.5 mmHg
[3]; [8]
  IOP: 21 ± 1.6 mmHg
[3]; [9]
  IOP: 18 ± 1.0 mmHg
[3]; [10]
  IOP: 18 ± 1.6 mmHg
[3]; [11]
  IOP: 17 ± 1.0 mmHg
[3]; [12]
  IOP: 21 ± 1.0 mmHg
[3]; [13]
  IOP: 18 ± 1.6 mmHg
[3]; [14]
  IOP: 20 ± 1.9 mmHg
[3]; [15]
  IOP: 23 ± 0.9 mmHg
[3]; [16]
  IOP: 20 ± 1.7 mmHg
[3]; [17]
  IOP: 17 ± 1.5 mmHg
[3]; [18]
  IOP: 15 ± 0.5 mmHg
[3]; [19]
  IOP: 18 ± 0.7 mmHg
[3]; [20]
  IOP: 18 ± 1.1 mmHg
[3]; [21]
  IOP: 18 ± 1.4 mmHg
[3]; [22]
  IOP: 15 ± 0.9 mmHg
[3]; [23]
  IOP: 16 ± 1.9 mmHg
[3]; [24]
  IOP: 16 ± 1.2 mmHg
[3]; [25]
  IOP: 19 ± 1.2 mmHg
[3]; [26]
  IOP: 22 ± 1.5 mmHg
[3]; [27]
  IOP: 21 ± 1.1 mmHg
[3]; [28]
  IOP: 17 ± 0.7 mmHg
[3]; [29]
  IOP: 16 ± 1.0 mmHg
[4]; 1% or 2% topical, rabbit
  mydriasis / pupil diameter (result in words): significant mydriasis
[4]; 1% topical
  Mydriatic Responses, TREATED EYE: + (+ = 0–2 mm change)
  Mydriatic Responses, UNTREATED EYE: + (+ = 0–2 mm change)
[4]; [6]
  Pupil Diameter: 6 ± 0.2 mm
[4]; [7]
  Pupil Diameter: 6 ± 0.2 mm
[4]; [8]
  Pupil Diameter: 6 ± 0.2 mm
[4]; [9]
  Pupil Diameter: 6 ± 0.2 mm
[4]; [10]
  Pupil Diameter: 5 ± 0.2 mm
[4]; [11]
  Pupil Diameter: 5 ± 0.2 mm
[4]; [12]
  Pupil Diameter: 6 ± 0.2 mm
[4]; [13]
  Pupil Diameter: 6 ± 0.2 mm
[4]; [14]
  Pupil Diameter: 6 ± 0.2 mm
[4]; [15]
  Pupil Diameter: 6 ± 0.2 mm
[4]; [16]
  Pupil Diameter: 5 ± 0.2 mm
[4]; [17]
  Pupil Diameter: 5 ± 0.2 mm
[4]; 2% topical
  Mydriatic Responses, TREATED EYE: ++ (++ = 2–4 mm change)
  Mydriatic Responses, UNTREATED EYE: ++ (++ = 2–4 mm change)
[4]; [18]
  Pupil Diameter: 9 ± 0.4 mm
[4]; [19]
  Pupil Diameter: 9 ± 0.4 mm
[4]; [20]
  Pupil Diameter: 9 ± 0.4 mm
[4]; [21]
  Pupil Diameter: 9 ± 0.4 mm
[4]; [22]
  Pupil Diameter: 6 ± 0.4 mm
[4]; [23]
  Pupil Diameter: 6 ± 0.4 mm
[4]; [24]
  Pupil Diameter: 9 ± 0.4 mm
[4]; [25]
  Pupil Diameter: 9 ± 0.4 mm
[4]; [26]
  Pupil Diameter: 9 ± 0.4 mm
[4]; [27]
  Pupil Diameter: 9 ± 0.4 mm
[4]; [28]
  Pupil Diameter: 6 ± 0.4 mm
[4]; [29]
  Pupil Diameter: 6 ± 0.4 mm

## CNC[C@@H](O)c1cccc(O)c1 [(+)-Phenylephrine, (+)-phenylephrine]
Swiss-Webster mice [1]
  Depression Time: 30-min period following injection in which the maximal depression occurred: 0 to 30 min
  Stimulation Time: 30-min period following injection in which the maximal stimulant effect occurred: 60 to 90 min
  locomotor depressant effects, time course (result in words): dose-dependent locomotor depression within 10 to 20 minutes following injection
Swiss-Webster mice [1]; [5]
  Depression Potency: dose resulting in ½ the maximal depressant effect (ID50): 53.3 mg/kg
Swiss-Webster mice [2]
  effect of triprolidine pretreatment on stimulant or depressant effects: failed to show significant modification of stimulant or depressant effects
[3]; [6]
  IOP: 16 ± 1.5 mmHg
[3]; [7]
  IOP: 16 ± 0.7 mmHg
[3]; [8]
  IOP: 15 ± 0.5 mmHg
[3]; [9]
  IOP: 16 ± 1.0 mmHg
[3]; [10]
  IOP: 18 ± 2.1 mmHg
[3]; [11]
  IOP: 19 ± 1.8 mmHg
[3]; [12]
  IOP: 19 ± 1.8 mmHg
[3]; [13]
  IOP: 17 ± 1.1 mmHg
[3]; [14]
  IOP: 16 ± 1.0 mmHg
[3]; [15]
  IOP: 17 ± 1.7 mmHg
[3]; [16]
  IOP: 19 ± 2.0 mmHg
[3]; [17]
  IOP: 21 ± 2.0 mmHg
[3]; [18]
  IOP: 20 ± 1.7 mmHg
[3]; [19]
  IOP: 19 ± 1.8 mmHg
[3]; [20]
  IOP: 19 ± 2.2 mmHg
[3]; [21]
  IOP: 16 ± 2.4 mmHg
[3]; [22]
  IOP: 19 ± 0.8 mmHg
[3]; [23]
  IOP: 19 ± 0.9 mmHg
[3]; [24]
  IOP: 21 ± 1.7 mmHg
[3]; [25]
  IOP: 22 ± 2.2 mmHg
[3]; [26]
  IOP: 20 ± 1.8 mmHg
[3]; [27]
  IOP: 18 ± 1.9 mmHg
[3]; [28]
  IOP: 19 ± 2.2 mmHg
[3]; [29]
  IOP: 19 ± 1.6 mmHg
[4]; [6]
  Pupil Diameter: 6 ± 0.2 mm
[4]; [7]
  Pupil Diameter: 9 ± 0.2 mm
[4]; [8]
  Pupil Diameter: 9 ± 0.2 mm
[4]; [9]
  Pupil Diameter: 9 ± 0.2 mm
[4]; [10]
  Pupil Diameter: 5 ± 0.2 mm
[4]; [11]
  Pupil Diameter: 5 ± 0.2 mm
[4]; [12]
  Pupil Diameter: 6 ± 0.2 mm
[4]; [13]
  Pupil Diameter: 9 ± 0.2 mm
[4]; [14]
  Pupil Diameter: 9 ± 0.2 mm
[4]; [15]
  Pupil Diameter: 9 ± 0.2 mm
[4]; [16]
  Pupil Diameter: 5 ± 0.2 mm
[4]; [17]
  Pupil Diameter: 5 ± 0.2 mm
[4]; [18]
  Pupil Diameter: 6 ± 0.2 mm
[4]; [19]
  Pupil Diameter: 9 ± 0.2 mm
[4]; [20]
  Pupil Diameter: 9 ± 0.2 mm
[4]; [21]
  Pupil Diameter: 9 ± 0.2 mm
[4]; [22]
  Pupil Diameter: 5 ± 0.2 mm
[4]; [23]
  Pupil Diameter: 5 ± 0.2 mm
[4]; [24]
  Pupil Diameter: 6 ± 0.2 mm
[4]; [25]
  Pupil Diameter: 9 ± 0.2 mm
[4]; [26]
  Pupil Diameter: 9 ± 0.2 mm
[4]; [27]
  Pupil Diameter: 9 ± 0.2 mm
[4]; [28]
  Pupil Diameter: 5 ± 0.2 mm
[4]; [29]
  Pupil Diameter: 5 ± 0.2 mm
